Laboratory results taken from ChEMBL document CHEMBL1143507, “Molecular-modeling based design, synthesis, and activity of substituted piperidines as gamma-secretase inhibitors” (Bioorg Med Chem Lett, 2005).

How the values were obtained:
[1] = biological target: T1, Amyloid-beta precursor protein (Homo sapiens, UniProt P05067); assay: In vitro effective concentration against beta amyloid protein 42 in ELISA; increase in presence of weak inhibitor
Target sequence in this assay (P05067 whole entry): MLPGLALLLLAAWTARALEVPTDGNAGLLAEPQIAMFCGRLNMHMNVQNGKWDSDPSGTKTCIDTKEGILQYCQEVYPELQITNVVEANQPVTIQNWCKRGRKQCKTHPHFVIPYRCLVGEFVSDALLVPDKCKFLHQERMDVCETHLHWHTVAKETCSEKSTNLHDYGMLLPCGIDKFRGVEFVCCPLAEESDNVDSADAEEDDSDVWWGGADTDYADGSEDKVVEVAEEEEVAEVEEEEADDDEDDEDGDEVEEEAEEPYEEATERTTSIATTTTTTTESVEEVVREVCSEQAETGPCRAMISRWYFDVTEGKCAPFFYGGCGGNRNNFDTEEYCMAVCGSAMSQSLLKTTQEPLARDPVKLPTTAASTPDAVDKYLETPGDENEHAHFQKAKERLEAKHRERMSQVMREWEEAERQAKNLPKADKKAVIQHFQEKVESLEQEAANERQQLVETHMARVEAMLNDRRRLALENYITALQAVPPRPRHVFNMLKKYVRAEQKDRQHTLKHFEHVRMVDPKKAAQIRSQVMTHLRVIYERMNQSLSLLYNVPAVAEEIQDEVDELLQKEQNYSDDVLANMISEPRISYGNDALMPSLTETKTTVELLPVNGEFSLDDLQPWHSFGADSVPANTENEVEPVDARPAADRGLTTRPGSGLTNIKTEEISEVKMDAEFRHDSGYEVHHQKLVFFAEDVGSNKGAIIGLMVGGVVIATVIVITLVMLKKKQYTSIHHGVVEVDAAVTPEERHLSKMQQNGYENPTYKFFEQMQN

[2] = biological target: T1, Amyloid-beta precursor protein; assay: Percent inhibition of beta amyloid protein 40 activity in ELISA at 100 uM
Target sequence in this assay (P05067 whole entry): as above

[3] = biological target: T1, Amyloid-beta precursor protein; assay: In vitro elevation of beta C-terminal fragment (Ct-99) in CHO cells expressing mutant Swedish NL human APP; format: functional, cell-based
Target sequence in this assay (P05067 18-770 limits assumed): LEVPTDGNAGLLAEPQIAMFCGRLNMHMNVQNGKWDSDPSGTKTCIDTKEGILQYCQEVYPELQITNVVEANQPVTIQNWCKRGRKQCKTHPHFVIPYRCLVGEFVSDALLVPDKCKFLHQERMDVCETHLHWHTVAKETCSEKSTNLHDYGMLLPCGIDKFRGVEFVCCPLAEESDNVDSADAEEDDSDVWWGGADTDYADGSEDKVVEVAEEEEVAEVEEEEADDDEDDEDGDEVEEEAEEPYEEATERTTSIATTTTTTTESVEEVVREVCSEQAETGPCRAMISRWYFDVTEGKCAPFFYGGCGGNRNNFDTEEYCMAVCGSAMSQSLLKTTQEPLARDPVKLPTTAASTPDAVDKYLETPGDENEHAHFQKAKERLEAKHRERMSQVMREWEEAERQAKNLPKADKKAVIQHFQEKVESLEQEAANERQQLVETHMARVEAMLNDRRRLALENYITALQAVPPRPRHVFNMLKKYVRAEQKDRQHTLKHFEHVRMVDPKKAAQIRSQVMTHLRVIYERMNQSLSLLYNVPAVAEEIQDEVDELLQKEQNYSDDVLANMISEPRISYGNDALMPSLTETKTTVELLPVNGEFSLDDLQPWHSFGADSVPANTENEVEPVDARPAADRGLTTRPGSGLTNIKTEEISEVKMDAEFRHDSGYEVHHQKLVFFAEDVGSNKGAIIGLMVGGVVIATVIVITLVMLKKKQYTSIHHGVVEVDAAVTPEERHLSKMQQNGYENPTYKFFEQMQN

[4] = biological target: T1, Amyloid-beta precursor protein; assay: In vitro reduction of Swedish NL mutant amyloid precursor protein activity expressed in CHO cells; format: functional, cell-based
Target sequence in this assay (P05067 18-770 limits assumed): as above

CCOC(=O)N1CCC(c2ccccc2OC)(S(=O)(=O)c2ccccc2)CC1
EC50 [1]: Increase

CCOC(=O)N1CCC(c2ccccc2OC)(S(=O)(=O)c2ccc(OC)cc2)CC1
EC50 [1]: Increase

CCOC(=O)N1CCC(c2ccccc2)(S(=O)(=O)c2ccccc2)CC1
inhibition [2]: 84% | EC50 [1]: Increase

CCOC(=O)N1CCC(c2ccccc2)(S(=O)(=O)c2ccc(OC)cc2)CC1
EC50 [1]: Increase

CCOC(=O)N1CCC(c2ccccc2C)(S(=O)(=O)c2ccccc2)CC1
EC50 [1]: Increase

CCOC(=O)N1CCC(c2ccccc2C)(S(=O)(=O)c2ccc(OC)cc2)CC1
EC50 [1]: Increase

CCOC(=O)N1CCC(c2ccccc2OC)(S(=O)(=O)c2ccc(Cl)cc2)CC1
EC50 [3]: 640 nM | EC50 [4]: 530 nM
